Measurements: paper PMC8908504 (ACS Omega, 2022)
“And” between values parts separate entries of the source, which are not always exact repeats. Identical values can stand only once. Like-named read-outs stand apart in the source and are kept apart here.

Assays:
[1] = log D7.4 estimation by HPLC-based method; format: physicochemical; details: HPLC, Phenomenex Luna 5 μm Phenyl-Hexyl column
Description: The log D7.4 values were estimated using a common HPLC-based method in accordance with guideline OPPTS 830.7570 of the United States Environmental Protection Agency (EPA). The HPLC measurements were performed with a Phenomenex Luna 5 μm Phenyl-Hexyl 100 Å column (150 × 4.6 mm). […]. Uracil was used to measure the unretained peak time. To obtain a calibration function, the logarithm of the capacity factors for the reference substances was then plotted against the corresponding log P values taken from the mentioned guideline, which are equivalent to the log D7.4 values for non-ionizable compounds like the reference substances used for calibration. With this calibration function, it was possible to estimate the log D7.4 value from the corresponding retention time for each compound to be tested. For the measurement, 2 mg of the reference substances was each dissolved in 1 mL of methanol. A reference mixture was then obtained by combining 50 μL of each reference solution. The reference mixture was measured before and after the substances to be tested. The mean value from both measurements was used for the calibration line. The substances to be tested were injected as a solution in methanol (2 mg/mL), and the retention time was determined as the mean value from two measurements.

[2] = test system: HEP-G2 cells; assay: MTT cell viability assay, HEP-G2 cells; details: for LD50: 50% reduction of viability
Source text: (§1) In addition to the activity, basic toxicological properties of the newly synthesized compounds were also investigated by using the 3-(4,5-dimethylthiazol-2-yl)-2,5-diphenyltetrazolium bromide (MTT) cell viability assay on mouse TAMH and human HEP-G2 hepatic cell lines (see Table 2). Both cell lines are established for the evaluation of hepatotoxicity.[42],[43]
(§2) The culturing of the mouse liver TAMH and human liver cancer HEP-G2 cell lines and the MTT assay used to evaluate cell viability were carried out as previously described elsewhere in detail.[27],[29] […] The medium in the wells was then replaced with the medium containing the compounds. Control wells contained an equivalent number of cells and 1% (v/v) DMSO. Wells without cells were used to determine the background optical density (OD) and were treated as the control wells. After 24 or 48 h of incubation with the compound, the respective medium was replaced with a fresh medium supplemented with 10% (v/v) of a 2.5 mg/mL solution of MTT. The plates were incubated for 4 h. Then, the culture medium was carefully aspirated off and 50 μL of DMSO was added to each well to dissolve the formazan crystals. The ODs of each well were measured at λ = 570 nm with a SpectraMax 190 microplate reader.
(§3) The calculated T/Ccorr. values were plotted against the log(concentration). The LD50 and LD25 values were determined by using GraphPad Prism 6. […] The values are given as the mean with SD of at least three independent experiments.

[3] = test system: TAMH cells; assay: MTT cell viability assay, TAMH cells; details: for LD50: 50% reduction of viability
Source text: as §1, §2, §3

[4] = biological target: KV7.2/3 channel (Homo sapiens, UniProt O43525+O43526); assay: KV7.2/3 channel opening assay (thallium-sensitive fluorescence); format: cell-based; details: for EC50 / efficacy: HEK293 cells overexpressing KV7.2/3; for KV7.2/3 channel opening activity (in words): inactive = no channel opening activity detected up to a concentration of 10 μM; for efficacy: relative to maximum signal of flupirtine (=100%)
Sequence of KV7.2/3 channel (O43526 whole entry): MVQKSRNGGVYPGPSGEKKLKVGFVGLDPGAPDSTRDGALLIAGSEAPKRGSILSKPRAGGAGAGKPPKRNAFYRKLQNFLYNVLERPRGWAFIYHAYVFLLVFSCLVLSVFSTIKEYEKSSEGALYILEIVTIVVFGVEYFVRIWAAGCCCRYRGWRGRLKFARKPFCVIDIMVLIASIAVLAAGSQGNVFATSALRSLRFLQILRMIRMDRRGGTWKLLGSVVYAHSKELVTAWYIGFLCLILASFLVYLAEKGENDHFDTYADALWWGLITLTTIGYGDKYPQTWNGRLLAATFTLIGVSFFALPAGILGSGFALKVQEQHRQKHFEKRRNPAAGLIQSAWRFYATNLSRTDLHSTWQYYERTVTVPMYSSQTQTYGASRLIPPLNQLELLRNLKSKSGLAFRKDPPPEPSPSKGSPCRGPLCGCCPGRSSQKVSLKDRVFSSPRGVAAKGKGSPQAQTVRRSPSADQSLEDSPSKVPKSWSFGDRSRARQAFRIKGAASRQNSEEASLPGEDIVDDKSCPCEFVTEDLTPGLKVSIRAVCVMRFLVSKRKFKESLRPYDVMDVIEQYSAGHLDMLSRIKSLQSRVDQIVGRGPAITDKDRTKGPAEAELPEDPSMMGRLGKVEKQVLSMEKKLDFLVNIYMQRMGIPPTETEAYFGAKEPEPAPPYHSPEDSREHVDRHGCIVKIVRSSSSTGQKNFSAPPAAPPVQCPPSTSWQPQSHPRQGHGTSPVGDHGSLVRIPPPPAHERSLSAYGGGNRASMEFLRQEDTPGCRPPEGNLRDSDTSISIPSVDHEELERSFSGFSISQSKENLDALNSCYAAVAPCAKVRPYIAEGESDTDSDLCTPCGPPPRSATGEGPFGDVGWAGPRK
Sequence of KV7.2/3 channel (O43525 whole entry): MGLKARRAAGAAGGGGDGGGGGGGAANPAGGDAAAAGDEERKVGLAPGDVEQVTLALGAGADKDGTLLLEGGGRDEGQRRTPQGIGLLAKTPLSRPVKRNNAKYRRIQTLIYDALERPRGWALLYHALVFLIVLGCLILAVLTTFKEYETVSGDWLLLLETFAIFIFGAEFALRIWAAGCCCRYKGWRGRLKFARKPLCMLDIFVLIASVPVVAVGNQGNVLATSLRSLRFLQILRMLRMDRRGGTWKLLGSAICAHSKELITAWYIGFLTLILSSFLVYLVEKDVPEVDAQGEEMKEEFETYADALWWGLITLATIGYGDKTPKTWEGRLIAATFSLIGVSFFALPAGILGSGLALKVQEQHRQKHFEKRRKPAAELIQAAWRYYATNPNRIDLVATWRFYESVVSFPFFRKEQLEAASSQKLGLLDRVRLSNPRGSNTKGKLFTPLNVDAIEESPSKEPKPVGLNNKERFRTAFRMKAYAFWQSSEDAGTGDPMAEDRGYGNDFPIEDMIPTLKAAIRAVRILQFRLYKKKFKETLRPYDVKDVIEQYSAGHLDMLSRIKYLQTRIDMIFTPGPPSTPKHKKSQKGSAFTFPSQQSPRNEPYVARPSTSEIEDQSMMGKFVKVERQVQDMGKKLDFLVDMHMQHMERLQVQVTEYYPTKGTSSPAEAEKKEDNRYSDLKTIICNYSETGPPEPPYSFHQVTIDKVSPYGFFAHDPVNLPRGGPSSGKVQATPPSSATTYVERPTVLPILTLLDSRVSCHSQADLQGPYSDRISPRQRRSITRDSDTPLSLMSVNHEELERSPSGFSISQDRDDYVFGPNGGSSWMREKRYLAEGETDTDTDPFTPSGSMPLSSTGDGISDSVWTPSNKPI
Description: To evaluate the biological activity, the synthesized analogues were tested on HEK293 cells overexpressing the KV7.2/3 channel. The measurement was carried out in a fluorescence-based assay in which a thallium-sensitive dye generated the fluorescence signal. Due to its similarity to potassium, thallium can also pass through KV7 channels. The intensity of the fluorescence signal correlates with the amount of intracellular thallium and thus with the ability of the compounds to open KV7 channels. To determine the potency, the fluorescence intensity was measured as a function of the compound concentration. The efficacy was determined relative to the maximum fluorescence signal induced by flupirtine. For a summary of the activity data, see Table 2.
The cell culture of the KV7.2/3 transfected HEK293 cells (HEK293 KCNQ2/3 cells from SB Drug Discovery, Glasgow, UK) used for the assay and the processing of the obtained data were performed as described in earlier work.[27],[29] Briefly, 60,000 cells/well were seeded into 96-well microtiter plates for fluorescence-based assays (4titude Vision Plate Black 96-Well microtiter plates from ThermoScientic) and incubated for 24 h. After incubation, the medium was changed to 200 μL/well loading buffer containing 5 mmol/L probenecid and incubated for 1 h at room temperature. Subsequently, the test compounds dissolved in DMSO were added to the wells to the desired concentrations and further incubated for 30 min. As a control, the loading buffer with a DMSO concentration corresponding to the substance samples (1% (V/V)) was used. Fluorescence measurements were performed on the Infinite F200 Pro plate reader (Tecan) set at […]/emission wavelengths of 485 and 535 nm, respectively. After measuring the background fluorescence (baseline) for 20 s, a stimulus buffer (25 mmol/L K^+, 15 mmol/L Tl^+) was added just before the fluorescence of each well was measured.
The calculations to obtain dose–response curves were performed in the same manner as in previous investigations.[27],[29] Briefly, the fluorescence intensity was normalized with the baseline signal (F/F0) at each time of signal acquisition. To obtain the corrected negative control, a value of 1 was subtracted from the normalized value of the negative control. Subsequently, the value of the corrected negative control was subtracted from the maximum (corr. F/F0) value of a compound in a defined concentration (corr. ΔF/F0) and then plotted against the logarithmic concentration. The EC50 value was calculated as relative values with GraphPad Prism 6 (La Jolla, CA, USA), that is, the inflection points of the sigmoidal curves. The Emax value, the maximum response, indicates the intrinsic activity of a compound. This value was determined relative to flupirtine (1), where the maximum corr. ΔF/F0 value of flupirtine (1) was defined as 100%. The EC50 and Emax value of a compound is the mean of at least three independent experiments ± standard deviation (SD).

[5] = pH 7.4, HPLC, calibration C, read-out: logD7.4
[6] = pH 7.4, HPLC, calibration D, read-out: logD7.4
[7] = pH 7.4, HPLC, mean of two calibrations, read-out: logD7.4 (mean)
[8] = pH 7.4, estimated by HPLC-based method, pH 7.4, read-out: log D7.4
[9] = HEP-G2 cells, MTT assay, 24 h exposure, 25% reduction of viability
[10] = HEP-G2 cells, MTT assay, 24 h exposure
[11] = TAMH cells, MTT assay, 24 h exposure, 25% reduction of viability
[12] = TAMH cells, MTT assay, 24 h exposure
[13] = pH 7.4, HPLC, calibration A1, read-out: logD7.4
[14] = pH 7.4, HPLC, calibration B1, read-out: logD7.4
[15] = concentration for half-maximal channel opening, mean ± SD, ≥3 determinations

Structure (SMILES)	chromatographic logD [1, 5]	chromatographic logD [1, 6]	chromatographic logD [1, 7]	chromatographic logD [1, 8]	LD25 [2, 9] [µM]	LD50 [2, 10] [µM]	LD25 [3, 11] [µM]	LD50 [3, 12] [µM]	EC50 ([4]; footnote e) [µM]	KV7.2/3 channel opening activity (in words) [4]	chromatographic logD [1, 13]	chromatographic logD [1, 14]	loss of potency (factor) ([4]; 36a compared with 36b)	EC50 [4, 15] [µM]	efficacy [4]	LD50 ([2]; HEP-G2 cells, MTT assay, 24 h exposure, listed as flupirtine) [µM]	LD25 ([2]; human, 24 h) [µM]	LD50 ([3]; TAMH cells, MTT assay, 24 h exposure, listed as flupirtine) [µM]	LD25 ([3]; mouse, 24 h) [µM]
COc1cc(NCc2ccc(F)cc2)ccc1C(=O)NCC(C)C [28a, 4-[(4-Fluorobenzyl)amino]-N-isobutyl-2-methoxybenzamide]	3.79	3.79	3.8	3.8	31 ± 13	42 ± 7	43 ± 27	>63	> 10	inactive									
COc1cc(NCc2ccc(F)cc2)ccc1C(=O)NCc1ccc(F)cc1 [28b, N-(4-Fluorobenzyl)-4-[(4-fluorobenzyl)amino]-2-methoxybenzamide]	4.28	4.29	4.3	4.3	>8	>8	>8	>8	> 10	inactive									
CCCCNC(=O)c1c(C)cc(NCc2ccc(F)cc2)nc1OC [36a, N-Butyl-6-[(4-fluorobenzyl)amino]-2-methoxy-4-methylnicotinamide]			3.7	3.7	24 ± 1	>63	17 ± 1	>63			3.7	3.66	11	3.51 ± 0.724	65% and 65 ± 9%				
Cc1cc(N2CCOCC2)nc(N2CCOCC2)c1CNC(=O)c1ccc(F)cc1 [55a, 4-Fluoro-N-[(4-methyl-2,6-dimorpholinopyridin-3-yl)methyl]benzamide]			3.5	3.5	22 ± 6	>31	22 ± 7	>31	> 10	inactive	3.45	3.46							
Cc1cc(N2CCOCC2)nc(N2CCOCC2)c1CNC(=O)Cc1cc(F)cc(F)c1 [55b, 2-(3,5-Difluorophenyl)-N-[(4-methyl-2,6-dimorpholinopyridin-3-yl)methyl]acetamide]			3.5	3.5	20 ± 7	>250	24 ± 5	>250	> 10	inactive	3.52	3.53							
CCOC(=O)Nc1ccc(NCc2ccc(F)cc2)nc1N [compound 1, flupirtine, reference compound]			2.1	2.1		547 ± 111		487 ± 51			2.1	2.06		1.84 ± 0.844	100%	~500	74 ± 40	~500	103 ± 47
CC(C)CNC(=O)c1ccc(NCc2ccc(F)cc2)cc1N [compound 17, 2-Amino-4-[(4-fluorobenzyl)amino]-N-isobutylbenzamide]	2.75	2.75	2.7	2.7	56 ± 40	>125	>125	>125	> 10	inactive									
CCCCNC(=O)c1ccc(NCc2ccc(F)cc2)nc1N [compound 21, 2-Amino-N-butyl-6-[(4-fluorobenzyl)amino]nicotinamide]			2.9	2.9	148 ± 11	149 ± 11	145 ± 7	149 ± 7	> 10	inactive	2.88	2.86							
CCCNC(=O)c1ccc(NCc2ccc(F)cc2)cc1CC.Cl [compound 47, 2-Ethyl-4-[(4-fluorobenzyl)amino]-N-propylbenzamide hydrochloride]	3.24	3.23	3.2	3.2	60 ± 9	77 ± 15		>125	> 10	did not result in any improvement in terms of activity									
Cc1cc(N2CCOCC2)nc(N)c1CNC(=O)Cc1cc(F)cc(F)c1 [compound 61, N-[(2-Amino-4-methyl-6-morpholinopyridin-3-yl)methyl]-2-(3,5-difluorophenyl)acetamide]			2.6	2.6	>63	>63	>63	>63	> 10	inactive	2.57	2.58							
